The text below walks through data of patent publication US20110200626A1, “IQGAP3 EPITOPE PEPTIDES AND VACCINES CONTAINING THE SAME” (Oncotherapy Science, Inc., priority 2008, published 2011).

Entries after “also recorded” stand apart in the source; their conditions may differ. Ends that are not written are not given here.

Format in all cases: cell-based, human
The test system of assay [1] is peptide-pulsed T2 cells. Put plainly: IFN-gamma ELISPOT assay on CTLs induced with HLA-A*0201 restricted peptides. Particulars: against peptide-pulsed target cells compared with control without peptide.
Assay [2] deals with peptide-pulsed T2 cells. Put plainly: IFN-gamma ELISA assay on CTL lines (HLA-A*0201). The note with it: target cells pulsed with corresponding peptide vs without peptide. (An ELISA detects its analyte on a solid surface through an enzyme-linked reagent.)
For assay [3], the system named is peptide-pulsed A24LCL cells. Put plainly: IFN-gamma ELISPOT assay on CTLs induced with HLA-A*2402 restricted peptides. Particulars: against peptide-pulsed target cells compared with control without peptide.
Assay [4] relates to peptide-pulsed A24LCL cells. In words: IFN-gamma ELISA assay on CTL lines (HLA-A*2402). The note with it: target cells pulsed with corresponding peptide vs without peptide.

Regarding “LLPAaGLDDV (LLPAAGLDDV; not fully specified (residue 5); printed as LLPAaGLDDV) [SEQ ID NO: 125]”, in the assay with peptide-pulsed T2 cells [1] (listed as IQGAP3-A02-10-548), the “IFN-gamma production of peptide-induced CTLs (ELISPOT)” value (shortened to “IFN-gamma production … (ELISPOT)”) is reported as “potent IFN-gamma production ability”. The “IFN-gamma production of established CTL lines (ELISA)” value (shortened to “IFN-gamma production … (ELISA)”) in the assay with peptide-pulsed T2 cells [2] was “potent IFN-gamma production”.

Take RQNVAYQYL [SEQ ID NO: 25]: the “IFN-gamma production … (ELISPOT)” value in assay [3] (listed as IQGAP3-A24-9-26) is listed as “potent IFN-gamma production ability”. Also, the “IFN-gamma production … (ELISA)” value in assay [4] is recorded as “potent IFN-gamma production”.

Consider RLDIALRNLL [SEQ ID NO: 63], for which the “IFN-gamma production … (ELISPOT)” value in assay [3] (listed as IQGAP3-A24-10-1114) was “potent IFN-gamma production ability”. In assay [4], the “IFN-gamma production … (ELISA)” value is reported as “potent IFN-gamma production”.

Regarding MYQLELAVL [SEQ ID NO: 6], the “IFN-gamma production … (ELISPOT)” value in assay [3] (listed as IQGAP3-A24-9-417) is “typical negative data of CTL response; also recorded: no specific IFN-gamma production”. The entries for the “IFN-gamma production … (ELISA)” value in assay [4] and in assay [4] (listed as IQGAP3-A24-9-417) were “no specific IFN-gamma production” and “typical negative data of CTL response”, respectively.

As for YYSQYIRACL [SEQ ID NO: 37], the “IFN-gamma production … (ELISPOT)” value in assay [3] (listed as IQGAP3-A24-10-1507) was “potent IFN-gamma production ability”. Besides, the “IFN-gamma production … (ELISA)” value in assay [4] is on record as “potent IFN-gamma production”.

Regarding RSLLLSTKQL [SEQ ID NO: 62], the “IFN-gamma production … (ELISPOT)” value in assay [3] (listed as IQGAP3-A24-10-1363) was “potent IFN-gamma production ability”. Besides, the “IFN-gamma production … (ELISA)” value in assay [4] was “potent IFN-gamma production”.

As for RVVYCIHAL [SEQ ID NO: 29], the “IFN-gamma production … (ELISPOT)” value in assay [3] (listed as IQGAP3-A24-9-137) is reported as “potent IFN-gamma production ability”. In assay [4], the “IFN-gamma production … (ELISA)” value is “potent IFN-gamma production”.

In the case of “QLHYqDLLQL (QLHYQDLLQL; not fully specified (residue 5); printed as QLHYqDLLQL) [SEQ ID NO: 140]”, the “IFN-gamma production … (ELISPOT)” value with peptide-pulsed T2 cells [1] (listed as IQGAP3-A02-10-1590) was “potent IFN-gamma production ability”. In the assay on peptide-pulsed T2 cells [2], the “IFN-gamma production … (ELISA)” value is “potent IFN-gamma production”.

With “YLLQtQPIYL (YLLQTQPIYL; not fully specified (residue 5); printed as YLLQtQPIYL) [SEQ ID NO: 111]”, in the assay with peptide-pulsed T2 cells [1] (listed as IQGAP3-A02-10-961), the “IFN-gamma production … (ELISPOT)” value is “potent IFN-gamma production ability”. The “IFN-gamma production … (ELISA)” value in the assay with peptide-pulsed T2 cells [2] is “potent IFN-gamma production”.

On to KVNVNLLIFL [SEQ ID NO: 55], for which the “IFN-gamma production … (ELISPOT)” value in assay [3] (listed as IQGAP3-A24-10-1614) was “potent IFN-gamma production ability”. In addition, the “IFN-gamma production … (ELISA)” value in assay [4] is reported as “potent IFN-gamma production”.

For VYKVVGNLL [SEQ ID NO: 4], the “IFN-gamma production … (ELISPOT)” value in assay [3] (listed as IQGAP3-A24-9-1167) is “potent IFN-gamma production ability”. In addition, the “IFN-gamma production … (ELISA)” value in assay [4] was “potent IFN-gamma production”.

As to “LEAYqHLFYL (LEAYQHLFYL; not fully specified (residue 5); printed as LEAYqHLFYL) [SEQ ID NO: 139]”, in the assay on peptide-pulsed T2 cells [1] (listed as IQGAP3-A02-10-953), the “IFN-gamma production … (ELISPOT)” value is given as “potent IFN-gamma production ability”. Further, the “IFN-gamma production … (ELISA)” value in the assay with peptide-pulsed T2 cells [2] is reported as “potent IFN-gamma production”.

For RNGVLLAKL [SEQ ID NO: 32], in assay [3] (listed as IQGAP3-A24-9-63), the “IFN-gamma production … (ELISPOT)” value is “potent IFN-gamma production ability”. Also, in assay [4], the “IFN-gamma production … (ELISA)” value is reported as “potent IFN-gamma production”.

As to “SMYQlELAVL (SMYQLELAVL; not fully specified (residue 5); printed as SMYQlELAVL) [SEQ ID NO: 142]”, the “IFN-gamma production … (ELISPOT)” value in the assay with peptide-pulsed T2 cells [1] (listed as IQGAP3-A02-10-416) is recorded as “potent IFN-gamma production ability”. In the assay on peptide-pulsed T2 cells [2], the “IFN-gamma production … (ELISA)” value was “potent IFN-gamma production”.

Turning to KIGGILANEL [SEQ ID NO: 56], the “IFN-gamma production … (ELISPOT)” value in assay [3] (listed as IQGAP3-A24-10-191) is “potent IFN-gamma production ability”. Further, the “IFN-gamma production … (ELISA)” value in assay [4] is “potent IFN-gamma production”.

For IMDkIGLLV [SEQ ID NO: 150], the “IFN-gamma production … (ELISPOT)” value with peptide-pulsed T2 cells [1] (listed as IQGAP3-A02-10-897) was “potent IFN-gamma production ability”. Moreover, in the assay with peptide-pulsed T2 cells [2], the “IFN-gamma production … (ELISA)” value was “potent IFN-gamma production”.

FLRTWLPAV [SEQ ID NO: 101]: the “IFN-gamma production … (ELISPOT)” value in the assay with peptide-pulsed T2 cells [1] (listed as IQGAP3-A02-9-756) is reported as “potent IFN-gamma production ability”. Further, the “IFN-gamma production … (ELISA)” value in the assay on peptide-pulsed T2 cells [2] was “potent IFN-gamma production”.

For the substance “ILVHaPHPPL (ILVHAPHPPL; not fully specified (residue 5); printed as ILVHaPHPPL) [SEQ ID NO: 148]”, the “IFN-gamma production … (ELISPOT)” value in the assay on peptide-pulsed T2 cells [1] (listed as IQGAP3-A02-10-842) was “potent IFN-gamma production ability”. In the assay with peptide-pulsed T2 cells [2], the “IFN-gamma production … (ELISA)” value is recorded as “potent IFN-gamma production”.

Consider KAQELGLVEL [SEQ ID NO: 53], for which the “IFN-gamma production … (ELISPOT)” value in assay [3] (listed as IQGAP3-A24-10-345) is reported as “potent IFN-gamma production ability”. In assay [4], the “IFN-gamma production … (ELISA)” value is “potent IFN-gamma production”.

Consider HALGAVAQLL [SEQ ID NO: 67], for which, in assay [3] (listed as IQGAP3-A24-10-1207), the “IFN-gamma production … (ELISPOT)” value was “potent IFN-gamma production ability”. In assay [4], the “IFN-gamma production … (ELISA)” value is given as “potent IFN-gamma production”.

Consider VYCIHALSLF [SEQ ID NO: 40], for which the “IFN-gamma production … (ELISPOT)” value in assay [3] (listed as IQGAP3-A24-10-139) is “potent IFN-gamma production ability”. For the same substance, the “IFN-gamma production … (ELISA)” value in assay [4] is on record as “potent IFN-gamma production”.

As for PYDVTPEQAL [SEQ ID NO: 49], the “IFN-gamma production … (ELISPOT)” value in assay [3] (listed as IQGAP3-A24-10-1097) is “potent IFN-gamma production ability”. Also, the “IFN-gamma production … (ELISA)” value in assay [4] is reported as “potent IFN-gamma production”.

For the substance QYEGVAVMKL [SEQ ID NO: 35], the “IFN-gamma production … (ELISPOT)” value in assay [3] (listed as IQGAP3-A24-10-1600) is recorded as “potent IFN-gamma production ability”. The “IFN-gamma production … (ELISA)” value in assay [4] was “potent IFN-gamma production”.

Turning to AYQHLFYLL [SEQ ID NO: 2], the “IFN-gamma production … (ELISPOT)” value in assay [3] (listed as IQGAP3-A24-9-955) was “potent IFN-gamma production ability”. The “IFN-gamma production … (ELISA)” value in assay [4] was “potent IFN-gamma production”.

Take KALQDPALAL [SEQ ID NO: 57]: the “IFN-gamma production … (ELISPOT)” value in assay [3] (listed as IQGAP3-A24-10-314) was “potent IFN-gamma production ability”. The “IFN-gamma production … (ELISA)” value in assay [4] is listed as “potent IFN-gamma production”.

For CFAPSVVPL [SEQ ID NO: 21], the “IFN-gamma production … (ELISPOT)” value in assay [3] (listed as IQGAP3-A24-9-74) is listed as “potent IFN-gamma production ability”. Besides, in assay [4], the “IFN-gamma production … (ELISA)” value is reported as “potent IFN-gamma production”.

For the substance “FLAEaELLKL (FLAEAELLKL; not fully specified (residue 5); printed as FLAEaELLKL) [SEQ ID NO: 113]”, the “IFN-gamma production … (ELISPOT)” value with peptide-pulsed T2 cells [1] is on record as “no specific IFN-gamma production”.

For the substance “KLGHcFAPSV (KLGHCFAPSV; not fully specified (residue 5); printed as KLGHcFAPSV) [SEQ ID NO: 114]”, in the assay on peptide-pulsed T2 cells [1] (listed as IQGAP3-A02-10-70), the “IFN-gamma production … (ELISPOT)” value is recorded as “potent IFN-gamma production ability”. In the assay on peptide-pulsed T2 cells [2], the “IFN-gamma production … (ELISA)” value is “potent IFN-gamma production”.
